Laboratory results published in PubChem BioAssay AID1963828 (Molecular Pharmacology Branch, DTP, NCI, 2024).

System: 991263-137-R1-J2-PDC complex spheroid viability
Test: Anticancer human tumor 991263-137-R1-J2-PDC patient-derived colon adenocarcinoma cell line growth inhibition [POLQ]
Settings: for IC50: curve of first compound; for viability, T/C: stronger effect = lower value
In short: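 Patient-derived tumour cells were co-cultured with HUVEC and mesenchymal stem cells as multicellular spheroids at 37 °C. They were treated with POLQ inhibitors (novobiocin, ART-558, RP6685) alone or combined with other agents. Top concentrations were at or near clinical Cmax (otherwise 10 microM; SN-38 at 1 microM), decreasing in half-log steps.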

[1] = second compound 0.0316 µM, first compound 0.00316 µM
[2] = second compound 0.0316 µM, first compound 0.01 µM
[3] = second compound 0.0316 µM, first compound 0.0316 µM
[4] = second compound 0.0316 µM, first compound 0.1 µM
[5] = second compound 0.0316 µM, first compound 0.316 µM
[6] = second compound 0.0316 µM, first compound 1 µM
[7] = second compound 0.1 µM, first compound 0.00316 µM
[8] = second compound 0.1 µM, first compound 0.01 µM
[9] = second compound 0.1 µM, first compound 0.0316 µM
[10] = second compound 0.1 µM, first compound 0.1 µM
[11] = second compound 0.1 µM, first compound 0.316 µM
[12] = second compound 0.1 µM, first compound 1 µM
[13] = second compound 0.316 µM, first compound 0.00316 µM
[14] = second compound 0.316 µM, first compound 0.01 µM
[15] = second compound 0.316 µM, first compound 0.0316 µM
[16] = second compound 0.316 µM, first compound 0.1 µM
[17] = second compound 0.316 µM, first compound 0.316 µM
[18] = second compound 0.316 µM, first compound 1 µM
[19] = second compound 1 µM, first compound 0.00316 µM
[20] = second compound 1 µM, first compound 0.01 µM
[21] = second compound 1 µM, first compound 0.0316 µM
[22] = second compound 1 µM, first compound 0.1 µM
[23] = second compound 1 µM, first compound 0.316 µM
[24] = second compound 1 µM, first compound 1 µM
[25] = second compound 3.16 µM, first compound 0.00316 µM
[26] = second compound 3.16 µM, first compound 0.01 µM
[27] = second compound 3.16 µM, first compound 0.0316 µM
[28] = second compound 3.16 µM, first compound 0.1 µM
[29] = second compound 3.16 µM, first compound 0.316 µM
[30] = second compound 3.16 µM, first compound 1 µM
[31] = second compound 10 µM, first compound 0.00316 µM
[32] = second compound 10 µM, first compound 0.01 µM
[33] = second compound 10 µM, first compound 0.0316 µM
[34] = second compound 10 µM, first compound 0.1 µM
[35] = second compound 10 µM, first compound 0.316 µM
[36] = second compound 10 µM, first compound 1 µM
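Note: spheroids exposed to compounds for 7 days before readout.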
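Throughout, for viability, T/C: 100% = DMSO vehicle control viability.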

## C=CCn1c(=O)c2cnc(Nc3ccc(N4CCN(C)CC4)cc3)nc2n1-c1cccc(C(C)(C)O)n1 + Cc1cccc(N(C)C(=O)C2C(O)CCN2c2nc(C)cc(C(F)(F)F)c2C#N)c1
Second compound 0.0316 µM
  IC50: > 1000 nM
Second compound 0.1 µM
  IC50: > 1000 nM
Second compound 0.316 µM
  IC50: > 1000 nM
Second compound 1 µM
  IC50: > 1000 nM
Second compound 3.16 µM
  IC50: > 1000 nM
Second compound 10 µM
  IC50: > 1000 nM
[1]
  viability, T/C: 103%
[2]
  viability, T/C: 114%
[3]
  viability, T/C: 103%
[4]
  viability, T/C: 115%
[5]
  viability, T/C: 101%
[6]
  viability, T/C: 93%
[7]
  viability, T/C: 108%
[8]
  viability, T/C: 110%
[9]
  viability, T/C: 107%
[10]
  viability, T/C: 102%
[11]
  viability, T/C: 108%
[12]
  viability, T/C: 90.1%
[13]
  viability, T/C: 115%
[14]
  viability, T/C: 103%
[15]
  viability, T/C: 98.1%
[16]
  viability, T/C: 119%
[17]
  viability, T/C: 108%
[18]
  viability, T/C: 102%
[19]
  viability, T/C: 99.1%
[20]
  viability, T/C: 101%
[21]
  viability, T/C: 96%
[22]
  viability, T/C: 97.6%
[23]
  viability, T/C: 110%
[24]
  viability, T/C: 94.2%
[25]
  viability, T/C: 100%
[26]
  viability, T/C: 101%
[27]
  viability, T/C: 98.4%
[28]
  viability, T/C: 101%
[29]
  viability, T/C: 103%
[30]
  viability, T/C: 98.3%
[31]
  viability, T/C: 98.8%
[32]
  viability, T/C: 110%
[33]
  viability, T/C: 99.5%
[34]
  viability, T/C: 106%
[35]
  viability, T/C: 105%
[36]
  viability, T/C: 95.2%

## CCCS(=O)(=O)Nc1ccc(F)c(C(=O)c2c[nH]c3ncc(-c4ccc(Cl)cc4)cc23)c1F + Cc1cccc(N(C)C(=O)C2C(O)CCN2c2nc(C)cc(C(F)(F)F)c2C#N)c1
Second compound 0.0316 µM
  IC50: > 10000 nM
Second compound 0.1 µM
  IC50: > 10000 nM
Second compound 0.316 µM
  IC50: > 10000 nM
Second compound 1 µM
  IC50: > 10000 nM
Second compound 3.16 µM
  IC50: > 10000 nM
Second compound 10 µM
  IC50: > 10000 nM
[3]
  viability, T/C: 112%
[4]
  viability, T/C: 98.6%
[5]
  viability, T/C: 98%
[6]
  viability, T/C: 103%
Second compound 0.0316 µM, first compound 3.16 µM
  viability, T/C: 106%
Second compound 0.0316 µM, first compound 10 µM
  viability, T/C: 99.9%
[9]
  viability, T/C: 103%
[10]
  viability, T/C: 109%
[11]
  viability, T/C: 105%
[12]
  viability, T/C: 114%
Second compound 0.1 µM, first compound 3.16 µM
  viability, T/C: 106%
Second compound 0.1 µM, first compound 10 µM
  viability, T/C: 104%
[15]
  viability, T/C: 101%
[16]
  viability, T/C: 102%
[17]
  viability, T/C: 85.2%
[18]
  viability, T/C: 97.5%
Second compound 0.316 µM, first compound 3.16 µM
  viability, T/C: 101%
Second compound 0.316 µM, first compound 10 µM
  viability, T/C: 106%
[21]
  viability, T/C: 96.8%
[22]
  viability, T/C: 97.5%
[23]
  viability, T/C: 95.5%
[24]
  viability, T/C: 95.7%
Second compound 1 µM, first compound 3.16 µM
  viability, T/C: 100%
Second compound 1 µM, first compound 10 µM
  viability, T/C: 92.3%
[27]
  viability, T/C: 99.8%
[28]
  viability, T/C: 96.7%
[29]
  viability, T/C: 93.5%
[30]
  viability, T/C: 99.1%
Second compound 3.16 µM, first compound 3.16 µM
  viability, T/C: 109%
Second compound 3.16 µM, first compound 10 µM
  viability, T/C: 84.5%
[33]
  viability, T/C: 101%
[34]
  viability, T/C: 98.5%
[35]
  viability, T/C: 97.3%
[36]
  viability, T/C: 92.5%
Second compound 10 µM, first compound 3.16 µM
  viability, T/C: 101%
Second compound 10 µM, first compound 10 µM
  viability, T/C: 89.2%

## CCc1c2c(nc3ccc(O)cc13)-c1cc3c(c(=O)n1C2)COC(=O)[C@]3(O)CC + Cc1cccc(N(C)C(=O)C2C(O)CCN2c2nc(C)cc(C(F)(F)F)c2C#N)c1
Second compound 0.0316 µM
  IC50: 67 nM
Second compound 0.1 µM
  IC50: 100 nM
Second compound 0.316 µM
  IC50: 175 nM
Second compound 1 µM
  IC50: 72.3 nM
Second compound 3.16 µM
  IC50: 105 nM
Second compound 10 µM
  IC50: 153 nM
[1]
  viability, T/C: 103%
[2]
  viability, T/C: 91.3%
[3]
  viability, T/C: 48.6%
[4]
  viability, T/C: 53.7%
[5]
  viability, T/C: 36.3%
[6]
  viability, T/C: 27.8%
[7]
  viability, T/C: 96.7%
[8]
  viability, T/C: 119%
[9]
  viability, T/C: 67.2%
[10]
  viability, T/C: 57.1%
[11]
  viability, T/C: 36.1%
[12]
  viability, T/C: 28.4%
[13]
  viability, T/C: 97.6%
[14]
  viability, T/C: 96%
[15]
  viability, T/C: 73.4%
[16]
  viability, T/C: 60.1%
[17]
  viability, T/C: 41%
[18]
  viability, T/C: 33.6%
[19]
  viability, T/C: 111%
[20]
  viability, T/C: 111%
[21]
  viability, T/C: 64.3%
[22]
  viability, T/C: 50.6%
[23]
  viability, T/C: 48.7%
[24]
  viability, T/C: 32.5%
[25]
  viability, T/C: 109%
[26]
  viability, T/C: 92.5%
[27]
  viability, T/C: 70.4%
[28]
  viability, T/C: 53.5%
[29]
  viability, T/C: 33.9%
[30]
  viability, T/C: 36.6%
[31]
  viability, T/C: 108%
[32]
  viability, T/C: 81.5%
[33]
  viability, T/C: 67.9%
[34]
  viability, T/C: 53.2%
[35]
  viability, T/C: 46.2%
[36]
  viability, T/C: 24.5%
